Activity, fold change (FC) and inhibition data for 1 compound are collected here from ChEMBL document CHEMBL1212695, “An allosteric potentiator of M4 mAChR modulates hippocampal synaptic transmission” (Nat Chem Biol, 2008).

The target in assay [1] is T1, Muscarinic acetylcholine receptor M4 (Rattus norvegicus) (UniProt P08485).
T1 sequence (whole entry): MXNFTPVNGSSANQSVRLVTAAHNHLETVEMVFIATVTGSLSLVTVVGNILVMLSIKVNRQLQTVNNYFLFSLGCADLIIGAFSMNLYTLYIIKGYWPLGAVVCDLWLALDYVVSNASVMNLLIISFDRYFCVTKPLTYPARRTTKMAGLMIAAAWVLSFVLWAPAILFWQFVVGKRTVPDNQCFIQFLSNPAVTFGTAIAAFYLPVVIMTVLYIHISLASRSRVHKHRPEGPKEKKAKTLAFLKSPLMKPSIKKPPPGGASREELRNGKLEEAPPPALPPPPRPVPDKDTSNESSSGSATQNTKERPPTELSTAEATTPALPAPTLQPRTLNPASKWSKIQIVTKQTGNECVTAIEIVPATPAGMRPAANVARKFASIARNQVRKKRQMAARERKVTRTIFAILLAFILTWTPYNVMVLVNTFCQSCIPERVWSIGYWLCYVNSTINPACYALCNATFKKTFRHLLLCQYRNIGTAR
Description: Agonist activity at muscarinic M4 receptor in Sprague-Dawley rat hippocampal CA1 pyramidal neuron assessed as reduction of excitatory postsynaptic current at 1 uM by whole-cell electrophysiology relative to control. In kind it is functional, tissue-based. Further details: scale not given: the % may be the effect or the level left. As to conditions: Hippocampus.

In assay [2] the target is T1, Muscarinic acetylcholine receptor M4 (Rattus norvegicus). The assay is described as follows: Agonist activity at muscarinic M4 receptor in Sprague-Dawley rat hippocampal CA1 pyramidal neuron assessed as inhibitory postsynaptic current amplitude at 5 uM by whole-cell electrophysiology relative to control. It is filed as functional, tissue-based. Further details: scale not given: the % may be the effect or the level left. As to conditions: Hippocampus.

Assay [3] shares this target. The assay is described as follows: Allosteric activation of rat recombinant muscarinic M4 receptor expressed in CHO cells assessed as fold decrease in acetylcholine Ki for displacement of [3H]NMS from active binding site at 10 uM after 2 hrs by microplate scintillation counting. It is filed as cell-based. For orientation: Displacement assays read how much labelled ligand stays bound in the presence of the test substance.

Assay [4] has the same target. Description: Agonist activity at muscarinic M4 receptor in Sprague-Dawley rat hippocampal CA1 pyramidal neuron assessed as increase in carbachol-induced reduction in excitatory postsynaptic current at 5 uM by whole-cell electrophysiology relative to control. It is filed as functional, tissue-based. On the set-up: scale not given: the % may be the effect or the level left. As to conditions: Hippocampus.

Assay [5] shares this target. Description: Agonist activity at muscarinic M4 receptor in Sprague-Dawley rat hippocampal CA1 pyramidal neuron assessed as reduction of excitatory postsynaptic current at 100 uM by whole-cell electrophysiology relative to control. It is filed as functional, tissue-based. Conditions: Hippocampus.
Assay [6] has as its target T2, Muscarinic acetylcholine receptor M5 (Rattus norvegicus) (UniProt P08911).
T2 sequence (whole entry): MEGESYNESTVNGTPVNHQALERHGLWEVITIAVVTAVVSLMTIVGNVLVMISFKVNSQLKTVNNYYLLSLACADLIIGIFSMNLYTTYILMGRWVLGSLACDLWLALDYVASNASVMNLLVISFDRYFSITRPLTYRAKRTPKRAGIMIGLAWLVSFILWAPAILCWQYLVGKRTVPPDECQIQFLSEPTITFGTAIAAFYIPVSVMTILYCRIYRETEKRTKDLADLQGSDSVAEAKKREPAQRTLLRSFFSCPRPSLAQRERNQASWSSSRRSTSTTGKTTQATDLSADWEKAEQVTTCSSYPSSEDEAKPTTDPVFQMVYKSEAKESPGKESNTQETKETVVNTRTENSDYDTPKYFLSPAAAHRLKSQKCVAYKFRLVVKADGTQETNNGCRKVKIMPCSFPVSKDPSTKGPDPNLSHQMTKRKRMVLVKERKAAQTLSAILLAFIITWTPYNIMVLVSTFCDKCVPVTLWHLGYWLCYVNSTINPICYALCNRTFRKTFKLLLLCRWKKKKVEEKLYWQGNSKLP
The assay is described as follows: Displacement of [3H]NMS from rat recombinant muscarinic M5 receptor expressed in CHO cells after 2 hrs by microplate scintillation counting. It is filed as cell-based.

The target of assay [7] is T3, Muscarinic acetylcholine receptor M1 (Rattus norvegicus) (UniProt P08482).
T3 sequence (whole entry): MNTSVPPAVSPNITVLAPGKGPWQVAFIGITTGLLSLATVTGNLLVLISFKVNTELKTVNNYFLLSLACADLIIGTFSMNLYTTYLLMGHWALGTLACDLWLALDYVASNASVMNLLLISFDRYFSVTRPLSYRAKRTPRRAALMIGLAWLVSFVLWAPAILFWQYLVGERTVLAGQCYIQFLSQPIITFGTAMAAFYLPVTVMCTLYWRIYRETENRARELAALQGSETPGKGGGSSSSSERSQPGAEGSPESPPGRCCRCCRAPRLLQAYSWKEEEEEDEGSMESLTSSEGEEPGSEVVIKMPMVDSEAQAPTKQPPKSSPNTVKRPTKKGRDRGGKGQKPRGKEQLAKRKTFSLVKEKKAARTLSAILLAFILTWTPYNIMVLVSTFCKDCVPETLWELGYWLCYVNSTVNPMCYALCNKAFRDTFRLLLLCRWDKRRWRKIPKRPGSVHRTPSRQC
The assay is described as follows: Allosteric activation of rat recombinant muscarinic M1 receptor expressed in CHO cells assessed as potentiation of acetylcholine-induced calcium mobilization at 10 uM after 1 hr by fluorescence assay. It is filed as functional, cell-based. (In general: A change in cytosolic calcium serves as a functional read-out for many receptors and channels.)

Assay [8] has as its target T2, Muscarinic acetylcholine receptor M5 (Rattus norvegicus). The assay is described as follows: Agonist activity at rat recombinant muscarinic M5 receptor expressed in CHO cells assessed as induction of calcium mobilization at 10 uM after 1 hr by fluorescence assay. In kind it is functional, cell-based.

The source made the active and inactive calls. The rule behind the calls is not given here.

Regarding `Cc1cc(C)c2c(N)c(C(=O)NCc3ccc(Cl)cc3)sc2n1`, the Activity in assay [1] was 60.5%; in assay [2] it was 98.5%; in assay [4], 36.9%. Moreover, the fold change (FC) in assay [3] came to 14. Besides, in assay [5], the inhibition (in general, how much of the control response was suppressed) amounted to 16.1%. The result in assay [6], in assay [7] and in assay [8] was inactive.
